≈ marks a conversion by molar mass, not a printed value. Read-outs that look alike come from different tables or passages of the source. *1 amine or outer side, *2 acyl side, *3 side chain or, on linkers, in order; H or OH if unused. Where a SMILES comes first, the peptide text is derived from it. Bridges are numbered along the chain shown (N, C = ends). Roman numbers before positions name the chains, in order. [ ]: non-standard residue; d: D form. Actinocin(9to1) = Cc1c2oc3c(C)ccc(C(=O)[*:1])c3nc-2c(C(=O)[*:2])c(N)c1=O; NMeV = CN[C@H](C(=O)O)C(C)C; Sar = CNCC(=O)O
Legend:
lung LX-1 = assay: Treatment of lung LX-1 tumor; format: in vivo; conditions: at the doses tested
[1] = system: supercoiled closed-circular pBR322 DNA; assay: Cleavage of closed circular pBR322 DNA; format: biochemical; conditions: for Percentage of closed circular pBR322 DNA cleaved: 20° C., 1 h, Na2S2O4, FeCl2
Procedure: The cleavage of DNA was followed by monitoring of the conversion of supercoiled closed-circular pBR322 DNA to open-circular DNA (analyzed by agarose gel electrophoresis and quantitated by staining with 0.5 ug/mL of ethidium bromide for 30 min and densitometry; (Table II). SAD and RAD show strong DNA-cleaving ability in the presence of sodium hydrosulfite and ferrous chloride. Presumably, sodium hydrosulfite acts as a reducing agent and regenerates Fe(II) from Fe(III) to produce a continuous source of the active metal ion. When the DNA-cleaving reaction with the analogues was performed at 20° C., the ratio of cleaved DNA (open circular form DNA versus closed circular DNA) was almost maximum within 1 h. […] Cleavage of DNA by the analogues is aided by the actinomycin chromopeptide moiety, which acts as a site-specific binder to DNA, and is effected by the aminoquinone function which is chelated to the ferrous ion during the process, and this is the likely candidate which generates the radical species.
Plasmid DNA pBR322 (0.5 ug) was dissolved in /8 μL of a reaction buffer (5 mM […], 10 mM Tris-HCl). To this solution, 1 μL of the 10 mM aqueous solution of the agent containing 1 mM FeCl2 was added. The mixture was incubated for 0.5-2 h at 20° or 37° C. Then, the incubation mixture was mixed with 10 uL of sample loading buffer (50% glycerin in 2 X Boyer's buffer containing 0.01% bromophenol blue). Finally, 5 uL of the mixture was analyzed by 0.7% agarose gel electrophoresis (120 V, Boyer's buffer; the migration distance of bromophenol blue was 5.0 cm). The gel was stained with […] of ethidium bromide and then quantitated by densitometry.
^a Ten microliters of 200 u M pBR322 DNA nucelotides in UM 10 mM
TrisHCl (pH 7.8) and 50 mM NaCl, containing 4 mM Na2 --S2
O4 and 100 μM FeCl2, was incubated with drug concentration a
20° C. for 1 h; the reaction mixture was kept saturated with air
throughout the incubation period.
^b Percentage of DNA was calculated from the amounts of openand
closedcir- cular DNA in the incubation mixture.

calf thymus DNA [2] = conditions: value given with references 2,7; cited from earlier work
Solubility in water = format: physicochemical; conditions: for solubility in water: at 20° C.
Procedure: Synthesis of "Reverse" III AMD Analogue (RAD III, 3c). The synthesis of RAD III (3c) is shown schematically in Scheme I. Compound 4 was reacted with the benzyl ester of oxalacetic acid at 80° C. according to the procedure reported. The resulting product 5 with the CH2 COOCH2 C6 H5 substituent at the C-2 of the oxazole ring was debenzylated to 6, and compound 6 was coupled with excess 1,4-diaminobutane by DCC in pyridine. […] Like AMD and its other "reverse" analogues, RAD III (3c) is 16-fold more soluble in water at 4° C. than at 20° C.

calf thymus DNA [3] = assay: Equilibrium binding constants from Scatchard plots of binding isotherms; conditions: 0.01M phosphate buffer, pH 7.0 at 20° C.
Procedure: The equilibrium binding constants of RAD III (3c), determined from the Scatchard plots of binding isotherms with use of calf thymus DNA, are Kapp, 2.9×10^6 M^-1, and Bapp, 0.040 in 0.01M phosphate buffer, pH 7.0 at 20° C.

[4] = system: CX-1 human colon adenocarcinoma; assay: Chemotherapy of human colon CX-1 tumor heterotransplanted in nude mice; format: in vivo, human tumor in athymic mice
colon tumor 26 = assay: In vivo activity against colon tumor 26; parameters: species or system CDF1 mice; conditions: three doses over 9-day period
low molecular weight DNA = assay: Viscometry experiment (intercalation into DNA); format: binding; conditions: DNA 0.5×10^5 to 1.0×10^5 daltons
mouse melanoma (B16) = assay: In vitro inhibition of tumor cell growth; format: cell-based; conditions: B16 cell line
From the text: The comparative cell growth inhibitory activity of RAD's and SAD are reported (data in Table IV, supplementary material). The cell lines used are human lymphoblastic leukemia (CCRF-CEM), murine lymphocytic leukemia (P388) and lymphoid leukemia (L1210), and mouse melanoma (B16). […] In general, the cytotoxic potencies of the analogues are in the order: […]

SMILES | response of lung LX-1 to treatment (lung LX-1) | Percentage of closed circular pBR322 DNA cleaved [1] [%] | Percentage of closed circular pBR322 DNA cleaved ([1]; concn 100 M (so in the source)) [%] | solubility in water (Solubility in water) [µg/mL] | Percentage of closed circular pBR322 DNA cleaved ([1]; concn 25 M (so in the source)) [%] | Percentage of closed circular pBR322 DNA cleaved ([1]; concn 50 M (so in the source)) [%] | activity against colon tumor 26 (colon tumor 26) | cell growth inhibitory potency relative to AMD (mouse melanoma (B16)) | also measured
Cc1c2oc3c(C)ccc(C(=O)N[C@@H]4C(=O)N[C@H](C(C)C)C(=O)N5CCC[C@H]5C(=O)N(C)CC(=O)N(C)[C@@H](C(C)C)C(=O)O[C@@H]4C)c3nc-2c(C(=O)N[C@@H]2C(=O)N[C@H](C(C)C)C(=O)N3CCC[C@H]3C(=O)N(C)CC(=O)N(C)[C@@H](C(C)C)C(=O)O[C@@H]2C)c(N)c1=O [AMD (1), Actinomycin D] (I: T[dV]P[Sar][NMeV] / II: T[dV]P[Sar][NMeV]; ester I:1-I:C, II:1-II:C; linker I:N-II:N via Actinocin(9to1)) | practically ineffective | 10 | 22 | 1000 (≈ 797 µM) | – | – | – | – | DNA cleaving efficiency relative to RAD III (3c) and SAD (2) [1]: about 30%; Bapp (calf thymus DNA [2]): 0.108; Kapp (equilibrium binding constant) (calf thymus DNA [2]): 2.3e+07 M⁻¹
Cc1c2oc3c(C)c4oc(CC(=O)NCCCCN)nc4c(C(=O)N[C@@H]4C(=O)N[C@H](C(C)C)C(=O)N5CCC[C@H]5C(=O)N(C)CC(=O)N(C)[C@@H](C(C)C)C(=O)O[C@@H]4C)c3nc-2c(C(=O)N[C@@H]2C(=O)N[C@H](C(C)C)C(=O)N3CCC[C@H]3C(=O)N(C)CC(=O)N(C)[C@@H](C(C)C)C(=O)O[C@@H]2C)c(N)c1=O [RAD III (3c)] | practically ineffective | 40 | 58 | 2100 (≈ 1470 µM) | 45 | 50 | significant activity | two to fourfold | Bapp (calf thymus DNA [3]): 0.040; Kapp (equilibrium binding constant) (calf thymus DNA [3]): 2.9e+06 M⁻¹; % T/C, optimal ([4]; dose 75 μg/kg iv once a week for three weeks, TST 18, observed day 27): 13%; change in the intrinsic viscosity with increasing [ligand]/[DNA base pair] (low molecular weight DNA): failed to demonstrate any measurable change in the intrinsic viscosity; fold more soluble in water at 4° C. than at 20° C. (Solubility in water; 4° C. vs 20° C.): 16 fold
Cc1c2oc3c(C)c(O)c(N)c(C(=O)N[C@@H]4C(=O)N[C@H](C(C)C)C(=O)N5CCC[C@H]5C(=O)N(C)CC(=O)N(C)[C@@H](C(C)C)C(=O)O[C@@H]4C)c3nc-2c(C(=O)N[C@@H]2C(=O)N[C@H](C(C)C)C(=O)N3CCC[C@H]3C(=O)N(C)CC(=O)N(C)[C@@H](C(C)C)C(=O)O[C@@H]2C)c(N)c1=O [SAD (2)] | practically ineffective | 35 | 65 | – | 50 | 50 | significant activity | two to fourfold | % T/C, optimal ([4]; dose 40 μg/kg iv once a week for three weeks, TST 15, observed day 22): 18%; % T/C, optimal ([4]; dose 55 μg/kg iv once a week for three weeks, TST 15, observed day 22): 19%; % T/C, optimal ([4]; dose 70 μg/kg iv once a week for three weeks, TST 15, observed day 32): 5%; increase in %ILS over controls (colon tumor 26): 50-150%; increase of survival rate at 60 days (colon tumor 26): 10-40%
